Experimental data reported in the CheMixHub ionic liquid set.

Experiment: xn = mol fraction of the nth substance listed
Conditions: for electrical conductivity: frequency 0.001 MHz

CCCCCCCCCCCCCCCC[N+](C)(C)C.[Br-] + O
Conditions	electrical conductivity [S/m]	viscosity [mPa·s]
298.15 K, 100 kPa, x1 = 7.21e-06	–	0.896
298.15 K, 100 kPa, x1 = 2.162e-05	–	0.9
298.15 K, 100 kPa, x1 = 7.207e-05	–	0.8804
298.15 K, 101 kPa, x1 = 1.09e-06	0.001	–
298.15 K, 101 kPa, x1 = 2.34e-06	0.00165	–
298.15 K, 101 kPa, x1 = 3.39e-06	0.00255	–
298.15 K, 101 kPa, x1 = 4.43e-06	0.00305	–
298.15 K, 101 kPa, x1 = 5.57e-06	0.00366	–
298.15 K, 101 kPa, x1 = 6.72e-06	0.00441	–
298.15 K, 101 kPa, x1 = 7.97e-06	0.00511	–
298.15 K, 101 kPa, x1 = 8.91e-06	0.00577	–
298.15 K, 101 kPa, x1 = 1.12e-05	0.00697	–
298.15 K, 101 kPa, x1 = 1.213e-05	0.00757	–
298.15 K, 101 kPa, x1 = 1.307e-05	0.00823	–
298.15 K, 101 kPa, x1 = 1.411e-05	0.00873	–
298.15 K, 101 kPa, x1 = 1.46e-05	–	0.905
298.15 K, 101 kPa, x1 = 1.526e-05	0.00943	–
298.15 K, 101 kPa, x1 = 1.63e-05	0.00978	–
298.15 K, 101 kPa, x1 = 1.64e-05	–	0.9071
298.15 K, 101 kPa, x1 = 1.734e-05	0.0102	–
298.15 K, 101 kPa, x1 = 1.802e-05	–	0.9069
298.15 K, 101 kPa, x1 = 1.922e-05	0.0105	–
298.15 K, 101 kPa, x1 = 1.995e-05	0.0108	–
298.15 K, 101 kPa, x1 = 2.172e-05	0.0111	–
298.15 K, 101 kPa, x1 = 2.276e-05	0.0113	–
298.15 K, 101 kPa, x1 = 2.443e-05	0.0115	–
298.15 K, 101 kPa, x1 = 2.599e-05	0.0117	–
298.15 K, 101 kPa, x1 = 2.734e-05	0.012	–
298.15 K, 101 kPa, x1 = 2.859e-05	0.0122	–
298.15 K, 101 kPa, x1 = 3.622e-05	–	0.9141
298.15 K, 101 kPa, x1 = 5.496e-05	–	0.9181
298.15 K, 101 kPa, x1 = 6.937e-05	–	0.9203
298.15 K, 101 kPa, x1 = 9.225e-05	–	0.9267
298.15 K, 101 kPa, x1 = 0.0001067	–	0.933
298.15 K, 101 kPa, x1 = 0.0001193	–	0.9362
298.15 K, 101 kPa, x1 = 0.0001429	–	0.9436
298.15 K, 101 kPa, x1 = 0.0001602	–	0.9481
298.15 K, 101 kPa, x1 = 0.0001802	–	0.9511
298.15 K, 101 kPa, x1 = 0.0002057	–	0.9556
298.15 K, 101 kPa, x1 = 0.000211	–	0.9553
298.15 K, 101 kPa, x1 = 0.000245	–	0.9662
298.15 K, 101 kPa, x1 = 0.0002573	–	0.9651
298.15 K, 101 kPa, x1 = 0.0002724	–	0.9675
303.15 K, 100 kPa, x1 = 7.207e-05	–	0.7984
308.15 K, 100 kPa, x1 = 7.21e-06	–	0.742
308.15 K, 100 kPa, x1 = 2.162e-05	–	0.745
308.15 K, 100 kPa, x1 = 7.207e-05	–	0.7583

CCCC(=O)O + CC(CC(C)(C)C)CP(=O)([O-])CC(C)CC(C)(C)C.CCCCCCCCCCCCCC[P+](CCCCCC)(CCCCCC)CCCCCC
Conditions	viscosity [mPa·s]
298 K, 100 kPa, x2 = 0.9022	950

O=C1O[C@H]([C@@H](O)CO)C(O)=C1O + O + CCCC[N+](CCCC)(CCCC)CCCC.O=S(=O)([O-])O
viscosity [mPa·s], 101 kPa
Conditions	x1 = 0.0003639, x3 = 0	x1 = 0.0006573, x3 = 0	x1 = 0.0009524, x3 = 0	x1 = 0.001251, x3 = 0	x1 = 0.001553, x3 = 0	x1 = 0.001856, x3 = 0
298.15 K	0.899	0.904	0.91	0.916	0.922	0.927
308.15 K	0.724	0.728	0.732	0.738	0.743	0.748
318.15 K	0.6	0.604	0.608	0.612	0.616	0.621
